Paper PMC8758481, “Astroglial tracer BU99008 detects multiple binding sites in Alzheimer’s disease brain” (Molecular Psychiatry, 2021)
Like-named read-outs stand apart in the source and are kept apart here.

Tests used:
[1] = tested on: imidazoline-2 binding sites (I2BS); parameters: method as in PMID 29523627; details: human brain, pretreatment, highest dose of 80 mg; ref [43]; cited from earlier work
[2] = target: imidazoline-2 binding sites (I2BS); assay: ^3H-BU99008 competition binding assay with unlabelled ligands in temporal cortex brain homogenate; parameters: species or system human
Method: (§1) After 1 h incubation a similar protocol as saturation binding assay was done and the binding was quantified using the scintillation counter.
(§2) The competition binding data was fitted and analysed using non-linear regression competitive-binding function of GraphPad Prism 8.3 software to determine IC50 (half-maximal inhibitory concentration) values.

[3] = target: imidazoline-2 binding sites (I2BS); assay: ^3H-BU99008 competition binding with unlabelled BU99008 in the presence of MAO B inhibitors; parameters: species or system human; details: for IC50: unlabelled BU99008 alone
Method: A similar protocol as saturation binding assay was performed after 1 h incubation and the binding was quantified using the scintillation counter.
as §2

[4] = target: T1, monoamine oxidase B (MAO B) (Homo sapiens, UniProt P27338); assay: ^3H-Deprenyl competition binding assay in temporal cortex brain homogenate; details: for IC50: vs 10 nM ^3H-Deprenyl, two-site fit
T1 construct: from tissue; host or cells: large frozen postmortem human brain sections (control, sporadic AD, AβPParc carrier)
T1 sequence (P27338 1-520): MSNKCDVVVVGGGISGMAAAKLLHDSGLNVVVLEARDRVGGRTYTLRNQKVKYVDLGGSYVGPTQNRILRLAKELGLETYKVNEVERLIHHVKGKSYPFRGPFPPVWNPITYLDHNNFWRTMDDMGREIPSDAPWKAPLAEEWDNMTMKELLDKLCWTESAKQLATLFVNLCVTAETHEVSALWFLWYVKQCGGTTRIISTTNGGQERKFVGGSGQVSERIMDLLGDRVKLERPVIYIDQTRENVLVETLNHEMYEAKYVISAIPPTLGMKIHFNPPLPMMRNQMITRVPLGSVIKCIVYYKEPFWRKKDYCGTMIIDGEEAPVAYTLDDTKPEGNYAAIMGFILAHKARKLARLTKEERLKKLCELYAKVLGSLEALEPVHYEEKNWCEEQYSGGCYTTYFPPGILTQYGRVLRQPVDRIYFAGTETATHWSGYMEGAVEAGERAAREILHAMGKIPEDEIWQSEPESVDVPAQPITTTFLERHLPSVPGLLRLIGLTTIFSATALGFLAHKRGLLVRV
Method: as §1, §2

[5] = tested on: imidazoline-2 binding sites (I2BS); parameters: method as in PMID 29523627, PMID 24711648; details: rhesus brain, dose-dependent; ref [43], [51]; cited from earlier work
[6] = AD temporal cortex, vs 1 nM ^3H-BU99008, two-site fit, read-out: IC50_1
[7] = AD temporal cortex, vs 1 nM ^3H-BU99008, two-site fit, read-out: IC50_2
[8] = CN temporal cortex, vs 1 nM ^3H-BU99008, two-site fit, read-out: IC50_2
[9] = CN temporal cortex, vs 1 nM ^3H-BU99008, two-site fit, read-out: IC50_1

SMILES	IC50 [2, 6]	IC50 [2, 7]	proportion of Low-affinity (LA; 10^-7 to -6 M) binding sites ([2]; AD, ^3H-BU99008 competition)	IC50 [2, 8]	proportion of High-affinity (HA; 10^-10 to -9 M) binding sites ([2]; CN, ^3H-BU99008 competition)	proportion of Super high-affinity (SH; 10^-13 to -11 M) binding sites ([2]; CN, ^3H-BU99008 competition)	IC50 [2, 9]	proportion of Low-affinity (LA; 10^-7 to -6 M) binding sites ([2]; CN, ^3H-BU99008 competition)	also measured
c1ccc2c(c1)OCC(C1=NCCN1)O2 (stereo not drawn) [idazoxan]	–	–	–	–	–	–	–	–	average block of ^11C-BU99008 uptake across all regions [1]: 60%
Cn1c(C2=NCCN2)cc2ccccc21 [BU99008, 2-(4,5-dihydro-1H-imidazol-2-yl)-1-methyl-1H-indole]	1.43 nM	342 nM	22%	2.45 nM	75%	25%	–	–	proportion of High-affinity (HA; 10^-10 to -9 M) binding sites ([2]; AD, ^3H-BU99008 competition): 78%; majority of binding to HA binding sites ([2]; both CN and AD cases, ^3H-BU99008 competition): 75–78%; IC50 ([3]; AD (85 years), one-site, read-out: IC50): 1.73 nM; IC50 ([3]; CN (71 years), vs 1 nM ^3H-BU99008, read-out: IC50_2 (HA)): 2.81 nM; majority of binding to LA sites [4]: 70–78%; IC50 ([4]; AD temporal cortex, read-out: IC50_1): 0.002 nM; IC50 ([4]; AD temporal cortex, read-out: IC50_2): 254 nM; IC50 ([4]; CN temporal cortex, read-out: IC50_1): 0.72 nM; IC50 ([4]; CN temporal cortex, read-out: IC50_2): 3110 nM
C[C@H](NCc1ccc(OCc2cccc(F)c2)cc1)C(N)=O [safinamide]	–	–	–	–	–	–	–	–	effect on binding of BU99008 to the SH binding sites ([3]; CN, ^3H-BU99008 competition): completely blocked; decrease in ^3H-BU99008 total binding ([3]; CN, lower concentration ranges [10^-14-10^-9]): 15–30%; effect on binding of BU99008 to HA binding sites ([3]; both CN and AD cases, increasing concentrations of inhibitor): not affected
Cl.c1ccc2nc(C3=NCCN3)ccc2c1 [BU224, 2-(4,5-Dihydroimidazol-2-yl)quinoline hydrochloride]	–	–	100%	186 nM	–	44%	0.026 nM	56%	IC50 ([2]; AD temporal cortex, vs 1 nM ^3H-BU99008, single binding site, read-out: IC50): 416 nM; ^11C-BU99008 signal throughout the brain after pretreatment [5]: significantly reduced
Cl.c1ccc2oc(C3=NCCN3)cc2c1 [2-BFI, 2-(Benzofuran-2-yl)-2-imidazoline hydrochloride]	0.041 nM	165 nM	–	150 nM	18%	–	0.34 nM	82%	proportion of Super high-affinity (SH; 10^-13 to -11 M) binding sites ([2]; AD, ^3H-BU99008 competition): 19%
